Earlier results on 1 molecule are cited in US20040120994A1, “Transdermal therapeutic system containing testorone and method for its production thereof” (priority 2001, published 2004).

The subject of one data set is transport proteins. Conditions: in the blood.

As to `C[C@]12CC[C@H]3[C@@H](CCC4=CC(=O)CC[C@@]43C)[C@@H]1CC[C@@H]2O` [testosterone], the plasma half-life result is recorded as “around 80 min”. In addition, in the data set with transport proteins, the “testosterone bound to transport proteins” value is listed as 98%.
